Experimental data taken from ChEMBL document CHEMBL3621050, “Activity and anion inhibition studies of the α-carbonic anhydrase from Thiomicrospira crunogena XCL-2 Gammaproteobacterium” (Bioorg Med Chem Lett, 2015).

Legend:
[1] = target: T1, Carbonic anhydrase, alpha family (Thiomicrospira crunogena, UniProt Q31FD6); assay: Inhibition of Thiomicrospira crunogena XCL-2 alpha-carbonic anhydrase expressed in Escherichia coli BL21 (DE3) cells by [18O]-exchange mass spectroscopy
T1 sequence (Q31FD6 whole entry): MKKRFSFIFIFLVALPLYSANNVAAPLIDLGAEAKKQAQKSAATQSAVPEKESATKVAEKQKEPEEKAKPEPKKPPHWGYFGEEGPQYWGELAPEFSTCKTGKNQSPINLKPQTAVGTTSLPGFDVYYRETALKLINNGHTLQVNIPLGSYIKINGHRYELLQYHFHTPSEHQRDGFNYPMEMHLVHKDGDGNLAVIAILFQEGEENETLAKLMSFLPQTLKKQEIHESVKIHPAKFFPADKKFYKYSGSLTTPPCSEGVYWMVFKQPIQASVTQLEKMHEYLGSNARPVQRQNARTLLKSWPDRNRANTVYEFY

[2] = Inhibition of Sulfurihydrogenibium yellowstonense YO3AOP1 alpha-carbonic anhydrase by [18O]-exchange mass spectroscopy
[3] = Inhibition of Sulfurihydrogenibium azorense alpha-carbonic anhydrase by [18O]-exchange mass spectroscopy
[4] = Inhibition of Vibrio cholerae alpha-carbonic anhydrase by [18O]-exchange mass spectroscopy

Q: With `S` [HYDROGEN SULFIDE] as the molecule, how does the Ki [1] read?
A: 1.1 µM

Q: And the Ki [2]?
A: 580 µM

Q: And the Ki [3]?
A: 380 µM

Q: And the Ki [4]?
A: 74 µM

Q: What does the source list for `Cl` [HYDROCHLORIC ACID]?
A: Ki [1]: 361000 µM; Ki [2]: 8300 µM; Ki [3]: 850 µM; Ki [4]: 930 µM

Q: Which results are given for `I` [IODIDE]?
A: Ki [1]: 53000 µM; Ki [2]: 860 µM; Ki [3]: 870 µM; Ki [4]: 9730 µM

Q: Which results are given for `Br` [BROMIDE]?
A: Ki [1]: 242000 µM; Ki [2]: 49000 µM; Ki [3]: 940 µM; Ki [4]: 28000 µM
